Test results taken from patent US10772893B2, “2-(morpholin-4-yl)-1,7-naphthyridines” (BAYER PHARMA AKTIENGESELLSCHAFT, priority 2014, dated 2020).
Where two headings read alike, the source gives them in different places.

Test system: HeLa cells
Assay: Proliferation assay, crystal violet staining
Conditions: Homo sapiens, 96 h
[1] = read-out: Inhibition of HeLa cell proliferation, HeLa cells, 4 days incubation

IC50 [1] [nM]	SMILES	IC50 (read-out: Inhibition of HeLa cell proliferation) [nM]
> 3000	C[C@@H]1CN[C@@H](C)CN1c1cc(N2CCOCC2)nc2c(-c3ccn[nH]3)nccc12 (relative stereo) [Example 178, 4-[(trans)-2,5-dimethylpiperazin-1-yl]-2-(morpholin-4-yl)-8-(1H-pyrazol-5-yl)-1,7-naphthyridine]	–
2770	CS(=O)(=O)c1ccc(-c2cc(N3CCOCC3)nc3c(-c4ccn[nH]4)nccc23)cn1 [Example 3, 4-[6-(methylsulfonyl)pyridin-3-yl]-2-(morpholin-4-yl)-8-(1H-pyrazol-5-yl)-1,7-naphthyridine]	–
1490	Cc1cc(S(C)(=O)=O)ncc1-c1cc(N2CCOCC2)nc2c(-c3ccn[nH]3)nccc12 [Example 6, 4-[4-methyl-6-(methylsulfonyl)pyridin-3-yl]-2-(morpholin-4-yl)-8-(1H-pyrazol-5-yl)-1,7-naphthyridine]	–
5080	CS(=O)(=O)Cc1cc(N2CCOCC2)nc2c(-c3ccn[nH]3)nccc12 [Example 37, 4-methanesulphonylmethyl-2-morpholin-4-yl-8-(2H-pyrazol-3-yl)-[1,7]naphthyridine]	–
191	CCn1nccc1-c1cc(N2CCOC[C@H]2C)nc2c(-c3ccn[nH]3)nccc12 [Example 69, 4-(1-ethyl-1H-pyrazol-5-yl)-2-[(3R)-3-methylmorpholin-4-yl]-8-(1H-pyrazol-5-yl)-1,7-naphthyridine]	–
201	C[C@@H]1COCCN1c1cc(-c2cncn2C)c2ccnc(-c3ccn[nH]3)c2n1 [Example 70, 4-(1-methyl-1H-imidazol-5-yl)-2-[(3R)-3-methylmorpholin-4-yl]-8-(1H-pyrazol-5-yl)-1,7-naphthyridine]	–
655	Cc1ncc(-c2cc(N3CCOC[C@H]3C)nc3c(-c4ccn[nH]4)nccc23)s1 [Example 78, 2-[(3R)-3-methylmorpholin-4-yl]-4-(2-methyl-1,3-thiazol-5-yl)-8-(1H-pyrazol-5-yl)-1,7-naphthyridine]	–
187	C[C@@H]1COCCN1c1cc(-c2ccnn2C2CC2)c2ccnc(-c3ccn[nH]3)c2n1 [Example 80, 4-(1-cyclopropyl-1H-pyrazol-5-yl)-2-[(3R)-3-methylmorpholin-4-yl]-8-(1H-pyrazol-5-yl)-1,7-naphthyridine]	–
245	C[C@@H]1COCCN1c1cc(-c2ccc(N3CCNCC3)cc2F)c2ccnc(-c3ccn[nH]3)c2n1 [Example 81, 4-[2-fluoro-4-(piperazin-1-yl)phenyl]-2-[(3R)-3-methylmorpholin-4-yl]-8-(1H-pyrazol-5-yl)-1,7-naphthyridine]	–
529	C[C@@H]1COCCN1c1cc(N2CCN(S(C)(=O)=O)CC2)c2ccnc(-c3ccn[nH]3)c2n1 [Example 82, 2-[(3R)-3-methylmorpholin-4-yl]-4-[4-(methylsulfonyl)piperazin-1-yl]-8-(1H-pyrazol-5-yl)-1,7-naphthyridine]	–
331	C[C@@H]1COCCN1c1cc(N(C)CC(C)(C)C)c2ccnc(-c3ccn[nH]3)c2n1 [Example 83, N-(2,2-dimethylpropyl)-N-methyl-2-[(3R)-3-methylmorpholin-4-yl]-8-(1H-pyrazol-5-yl)-1,7-naphthyridin-4-amine]	–
130	C[C@@H]1COCCN1c1cc(N2CCC(CO)CC2)c2ccnc(-c3ccn[nH]3)c2n1 [Example 84, (1-{2-[(3R)-3-methylmorpholin-4-yl]-8-(1H-pyrazol-5-yl)-1,7-naphthyridin-4-yl}piperidin-4-yl)methanol]	–
438	C[C@@H]1COCCN1c1cc(N(C)C2CC2)c2ccnc(-c3ccn[nH]3)c2n1 [Example 85, N-cyclopropyl-N-methyl-2-[(3R)-3-methylmorpholin-4-yl]-8-(1H-pyrazol-5-yl)-1,7-naphthyridin-4-amine]	–
543	C[C@@H]1COCCN1c1cc(N(C)c2ccc(F)cc2)c2ccnc(-c3ccn[nH]3)c2n1 [Example 87, N-(4-fluorophenyl)-N-methyl-2-[(3R)-3-methylmorpholin-4-yl]-8-(1H-pyrazol-5-yl)-1,7-naphthyridin-4-amine]	–

The remaining lines, values behind:

SMILES	IC50 [1] [nM]	IC50 (read-out: Inhibition of HeLa cell proliferation) [nM]
COP(=O)(OC)c1ccc(-c2cc(N3CCOCC3)nc3c(-c4ccn[nH]4)nccc23)cc1 [Example 9, dimethyl {4-[2-(morpholin-4-yl)-8-(1H-pyrazol-5-yl)-1,7-naphthyridin-4-yl]phenyl}phosphonate]	–	1010
CN1CC=C(c2cc(N3CCOCC3)nc3c(-c4ccn[nH]4)nccc23)CC1 [Example 14, 4-(1-methyl-1,2,3,6-tetrahydropyridin-4-yl)-2-(morpholin-4-yl)-8-(1H-pyrazol-5-yl)-1,7-naphthyridine]	1990	–
C[C@@H]1COCCN1c1cc(-c2ccccc2)c2ccnc(-c3cc[nH]n3)c2n1 [Example 27, 2-((R)-3-methylmorpholin-4-yl)-4-phenyl-8-(2H-pyrazol-3-yl)-[1,7]naphthyridine]	355	–
C[C@@H]1COCCN1c1cc(-c2cccc(S(C)(=O)=O)c2)c2ccnc(-c3cc[nH]n3)c2n1 [Example 28, 4-(3-methanesulphonylphenyl)-2-((R)-3-methylmorpholin-4-yl)-8-(2H-pyrazol-3-yl)-[1,7]naphthyridine]	316	–
CCOc1cc(N2CCOCC2)nc2c(-c3cc[nH]n3)nccc12 [Example 43, 4-ethoxy-2-(morpholin-4-yl)-8-(1H-pyrazol-3-yl)-[1,7]naphthyridine]	3880	–
c1ccc(COc2cc(N3CCOCC3)nc3c(-c4cc[nH]n4)nccc23)cc1 [Example 50, 4-benzyloxy-2-(morpholin-4-yl)-8-(1H-pyrazol-3-yl)-[1,7]naphthyridine]	> 10000	–
COc1cc(N2CCOC[C@H]2C)nc2c(-c3cc[nH]n3)nccc12 [Example 53, 4-methoxy-2-((R)-3-methylmorpholin-4-yl)-8-(1H-pyrazol-3-yl)-[1,7]naphthyridine]	1410	–
C[C@@H]1COCCN1c1cc(-c2ccccc2N)c2ccnc(-c3ccn[nH]3)c2n1 [Example 71, 2-{2-[(3R)-3-methylmorpholin-4-yl]-8-(1H-pyrazol-5-yl)-1,7-naphthyridin-4-yl]aniline]	167	–
C[C@@H]1COCCN1c1cc(-c2cccc(F)c2F)c2ccnc(-c3ccn[nH]3)c2n1 [Example 72, 4-(2,3-difluorophenyl)-2-[(3R)-3-methylmorpholin-4-yl]-8-(1H-pyrazol-5-yl)-1,7-naphthyridine]	200	–
C[C@@H]1COCCN1c1cc(-c2cc(F)ccc2N)c2ccnc(-c3ccn[nH]3)c2n1 [Example 75, 4-fluoro-2-[2-[(3R)-3-methylmorpholin-4-yl]-8-(1H-pyrazol-5-yl)-1,7-naphthyridin-4-yl]aniline]	271	–
C[C@@H]1COCCN1c1cc(-c2cncn2Cc2ccccc2)c2ccnc(-c3ccn[nH]3)c2n1 [Example 76, 4-(1-benzyl-1H-imidazol-5-yl)-2-[(3R)-3-methylmorpholin-4-yl]-8-(1H-pyrazol-5-yl)-1,7-naphthyridine]	968	–
C[C@@H]1COCCN1c1cc(-c2ccccc2F)c2ccnc(-c3ccn[nH]3)c2n1 [Example 77, 4-(2-fluorophenyl)-2-[(3R)-3-methylmorpholin-4-yl]-8-(1H-pyrazol-5-yl)-1,7-naphthyridine]	254	–
C[C@@H]1COCCN1c1cc(-c2cccnc2F)c2ccnc(-c3ccn[nH]3)c2n1 [Example 89, 4-(2-fluoropyridin-3-yl)-2-[(3R)-3-methylmorpholin-4-yl]-8-(1H-pyrazol-5-yl)-1,7-naphthyridine]	142	–
